Where two headings read alike, the source gives them in different places.
How the values were obtained:
FynT enzyme = FynT enzyme (Homo sapiens (Human), UniProt P06241); test: FynT enzyme activity (IMAP fluorescence polarization assay); type: biochemical; details: 60 min pre-incubation, 0.2 μM ATP
Experimental: FynT enzyme activity is measured using the IMAP (immobilized metal ion affinity-based fluorescence polarization) assay as outlined below.
Test compounds and FynT enzyme are pre-incubated 60 minutes at room temperature, before adding 5 μL/well of 400 nM Fluorescin labeled substrate peptide (p34cdc2 substrate peptide, e.g. #R7157/#R7172, Molecular Devices) in KR-buffer. Final peptide substrate concentration in assay is 100 nM. […] Following incubation for 2 h at room temperature the enzyme reaction is stopped by adding 40 μL/well IMAP Progressive Binding Solution (according to suppliers (Molecular Devices) protocol using 75% 1× buffer A and 25% 1× buffer B with 1:600 Progressive Binding Solution). After 60 min incubation at room temperature in the dark the FP signal is read. […] Values are calculated as percentage of the difference in readout (ΔmPi) of the controls with and without ATP. EC50 values are determined by curve fitting of the experimental results using Activity Base.

Btk enzyme (His-Btk) = Btk enzyme (His-Btk) (Homo sapiens (Human), UniProt Q06187); test: Btk enzyme activity (IMAP fluorescence polarization assay)
Src enzyme = Src enzyme (Homo sapiens (Human), UniProt P12931); test: Src enzyme activity (IMAP fluorescence polarization assay); details: read-out: EC50 Src activity values; IMAP, 60 min pre-incubation, 4 μM ATP
Lyn enzyme = Lyn enzyme (Homo sapiens (Human), UniProt P07948); test: Lyn enzyme activity (IMAP fluorescence polarization assay); details: read-out: EC50 Lyn activity values, 60 min pre-incubation, 2 μM ATP, bin bound in μM
Lck enzyme = Lck enzyme (Homo sapiens (Human), UniProt P06239); test: Lck enzyme activity (IMAP fluorescence polarization assay); details: read-out: EC50 Lck activity values; IMAP, 60 min pre-incubation, 6 μM ATP; bin bound in μM
[1] = IMAP, 60 min pre-incubation, 5 μM ATP, bin bound in nM
[2] = read-out: EC50 Btk activity values, IMAP, 60 min pre-incubation, 5 μM ATP, bin bound in nM
[3] = IMAP, 60 min pre-incubation, 5 μM ATP, bin bound in μM

Chain of Lyn enzyme (P07948 whole entry): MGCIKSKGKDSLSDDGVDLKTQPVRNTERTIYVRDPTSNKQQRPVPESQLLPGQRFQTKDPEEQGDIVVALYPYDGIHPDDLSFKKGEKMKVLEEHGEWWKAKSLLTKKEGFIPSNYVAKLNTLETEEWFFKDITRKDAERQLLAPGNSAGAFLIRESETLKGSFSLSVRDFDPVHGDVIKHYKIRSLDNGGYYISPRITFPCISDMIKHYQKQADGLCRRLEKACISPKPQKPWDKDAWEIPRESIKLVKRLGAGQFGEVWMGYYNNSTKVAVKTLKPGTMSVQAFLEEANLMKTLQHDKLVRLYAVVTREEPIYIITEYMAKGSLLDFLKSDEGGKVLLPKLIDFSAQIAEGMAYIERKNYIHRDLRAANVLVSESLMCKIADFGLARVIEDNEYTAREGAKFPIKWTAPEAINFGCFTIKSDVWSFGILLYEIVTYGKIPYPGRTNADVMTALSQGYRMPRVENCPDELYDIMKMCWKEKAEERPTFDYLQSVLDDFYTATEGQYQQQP
Chain of Btk enzyme (His-Btk) (Q06187 whole entry): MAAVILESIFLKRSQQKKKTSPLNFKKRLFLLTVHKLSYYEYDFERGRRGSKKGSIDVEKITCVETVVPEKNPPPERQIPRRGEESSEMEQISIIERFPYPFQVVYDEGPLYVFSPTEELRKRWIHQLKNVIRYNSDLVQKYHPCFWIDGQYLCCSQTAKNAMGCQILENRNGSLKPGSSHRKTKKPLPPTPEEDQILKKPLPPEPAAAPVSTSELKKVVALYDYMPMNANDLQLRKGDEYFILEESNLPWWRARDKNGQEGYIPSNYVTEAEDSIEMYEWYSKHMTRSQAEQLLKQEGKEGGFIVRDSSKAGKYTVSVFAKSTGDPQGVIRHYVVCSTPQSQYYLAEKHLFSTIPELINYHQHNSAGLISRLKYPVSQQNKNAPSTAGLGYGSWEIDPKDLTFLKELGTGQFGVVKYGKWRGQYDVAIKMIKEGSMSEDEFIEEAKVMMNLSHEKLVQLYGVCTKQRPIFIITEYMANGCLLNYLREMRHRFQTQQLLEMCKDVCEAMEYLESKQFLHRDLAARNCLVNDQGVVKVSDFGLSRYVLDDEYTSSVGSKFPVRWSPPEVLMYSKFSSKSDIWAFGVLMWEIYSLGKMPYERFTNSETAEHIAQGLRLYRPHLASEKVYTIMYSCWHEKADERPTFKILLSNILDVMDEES
Chain of FynT enzyme (P06241 other isoform, or with tags, fused parts or gaps): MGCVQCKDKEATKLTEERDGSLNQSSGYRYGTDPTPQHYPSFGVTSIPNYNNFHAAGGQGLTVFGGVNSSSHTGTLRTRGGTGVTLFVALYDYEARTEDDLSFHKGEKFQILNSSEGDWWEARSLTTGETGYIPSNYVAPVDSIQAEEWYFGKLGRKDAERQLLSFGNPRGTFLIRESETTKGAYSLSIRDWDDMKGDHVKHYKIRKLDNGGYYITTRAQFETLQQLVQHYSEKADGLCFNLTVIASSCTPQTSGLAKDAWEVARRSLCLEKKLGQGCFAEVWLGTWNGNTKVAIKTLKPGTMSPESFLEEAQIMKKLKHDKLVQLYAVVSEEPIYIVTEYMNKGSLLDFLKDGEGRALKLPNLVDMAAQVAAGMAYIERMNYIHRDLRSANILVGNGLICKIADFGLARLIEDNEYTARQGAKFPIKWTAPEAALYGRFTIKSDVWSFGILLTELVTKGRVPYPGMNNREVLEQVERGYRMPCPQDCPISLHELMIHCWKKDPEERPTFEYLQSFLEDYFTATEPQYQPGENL
Chain of Src enzyme (P12931 whole entry, looked up): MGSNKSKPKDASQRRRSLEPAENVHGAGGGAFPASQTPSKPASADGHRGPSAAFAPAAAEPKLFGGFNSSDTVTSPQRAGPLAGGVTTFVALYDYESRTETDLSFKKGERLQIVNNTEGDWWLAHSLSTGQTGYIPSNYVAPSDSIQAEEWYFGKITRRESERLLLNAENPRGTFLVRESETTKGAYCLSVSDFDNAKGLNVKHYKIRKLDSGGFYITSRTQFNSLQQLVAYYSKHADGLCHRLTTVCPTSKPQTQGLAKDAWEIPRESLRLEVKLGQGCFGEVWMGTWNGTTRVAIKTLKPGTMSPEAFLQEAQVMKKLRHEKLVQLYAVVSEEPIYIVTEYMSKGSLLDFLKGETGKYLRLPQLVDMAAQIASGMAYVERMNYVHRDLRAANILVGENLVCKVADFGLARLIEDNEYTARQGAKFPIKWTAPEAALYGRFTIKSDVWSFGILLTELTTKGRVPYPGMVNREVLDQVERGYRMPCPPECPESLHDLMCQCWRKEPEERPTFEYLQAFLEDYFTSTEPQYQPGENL
Chain of Lck enzyme (P06239 whole entry): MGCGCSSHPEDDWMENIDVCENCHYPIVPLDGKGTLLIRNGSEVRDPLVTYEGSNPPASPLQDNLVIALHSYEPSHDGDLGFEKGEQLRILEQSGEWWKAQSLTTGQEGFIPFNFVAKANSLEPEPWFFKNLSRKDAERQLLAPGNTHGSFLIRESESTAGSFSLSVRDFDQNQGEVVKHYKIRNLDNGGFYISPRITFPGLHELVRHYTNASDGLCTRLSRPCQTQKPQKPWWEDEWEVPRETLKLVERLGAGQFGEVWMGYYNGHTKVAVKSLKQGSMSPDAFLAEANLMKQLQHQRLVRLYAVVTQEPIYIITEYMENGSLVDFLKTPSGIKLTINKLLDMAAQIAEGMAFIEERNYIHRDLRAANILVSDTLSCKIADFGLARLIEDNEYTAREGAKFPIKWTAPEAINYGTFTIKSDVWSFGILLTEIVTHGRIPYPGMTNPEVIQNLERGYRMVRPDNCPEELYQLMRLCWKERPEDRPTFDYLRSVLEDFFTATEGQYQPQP

Row | SMILES | EC50 (FynT enzyme) | EC50 (Btk enzyme (His-Btk)) | EC50 Btk activity values (Btk enzyme (His-Btk); [1]) | EC50 (Src enzyme) | EC50 (Lyn enzyme) | EC50 (Lck enzyme) | EC50 (Btk enzyme (His-Btk); [2]) | EC50 Btk activity values (Btk enzyme (His-Btk); [3])
1 | COCC#CC(=O)N1CCC[C@H]1c1nc(-c2ccc(C(=O)Nc3ccccn3)cc2)c2c(N)nccn12 [Example 41, (S)-4-(8-Amino-3-(1-(4-methoxybut-2-ynoyl)pyrrolidin-2-yl)imidazo[1,5-a]pyrazin-1-yl)-N-(pyridin-2-yl)benzamide] | ≥ 1 µM | 10 to 100 nM | <100 nM | ≥ 1 µM | ≥ 1 µM | ≥ 1 µM | – | –
2 | C=CC(=O)N1CCC[C@H]1c1nc(-c2ccc(C(=O)Nc3cc(F)ccn3)cc2)c2c(N)nccn12 [Example 42, (S)-4-(3-(1-acryloylpyrrolidin-2-yl)-8-aminoimidazo[1,5-a]pyrazin-1-yl)-N-(4-fluoropyridin-2-yl)benzamide] | ≥ 1 µM | – | – | ≥ 1 µM | ≥ 1 µM | ≥ 1 µM | < 10 nM | –
3 | C=CC(=O)N1CCC[C@H]1c1nc(-c2ccc(C(=O)Nc3cc(N4CCCC4)ccn3)cc2)c2c(N)nccn12 [Example 43, (S)-4-(3-(1-acryloylpyrrolidin-2-yl)-8-aminoimidazo[1,5-a]pyrazin-1-yl)-N-(4-(pyrrolidin-1-yl)pyridin-2-yl)benzamide] | ≥ 1 µM | – | – | ≥ 1 µM | ≥ 1 µM | ≥ 1 µM | < 10 nM | –
4 | CC#CC(=O)N1CCCC[C@H]1c1nc(-c2ccc(C(=O)Nc3cc(F)ccn3)cc2)c2c(N)nccn12 [Example 44, (S)-4-(8-amino-3-(1-but-2-ynoylpiperidin-2-yl)imidazo[1,5-a]pyrazin-1-yl)-N-(4-fluoropyridin-2-yl)benzamide] | ≥ 1 µM | – | – | ≥ 1 µM | ≥ 1 µM | ≥ 1 µM | < 10 nM | –
5 | CC#CC(=O)N1CCCC[C@H]1c1nc(-c2ccc(C(=O)Nc3ccccn3)cc2)c2c(N)nccn12 [Example 45, (S)-4-(8-amino-3-(1-but-2-ynoylpiperidin-2-yl)imidazo[1,5-a]pyrazin-1-yl)-N-(pyridin-2-yl)benzamide] | ≥ 1 µM | – | – | ≥ 1 µM | ≥ 1 µM | ≥ 1 µM | < 10 nM | –
6 | C=CC(=O)N1CCCC[C@H]1c1nc(-c2ccc(C(=O)Nc3ccccn3)cc2)c2c(N)nccn12 [Example 46, (S)-4-(3-(1-acryloylpiperidin-2-yl)-8-aminoimidazo[1,5-a]pyrazin-1-yl)-N-(pyridin-2-yl)benzamide] | ≥ 1 µM | – | – | ≥ 1 µM | ≥ 1 µM | ≥ 1 µM | < 10 nM | –
7 | CC#CC(=O)N1CCC[C@H]1c1nc(-c2ccc(C(=O)Nc3cc(CCC)ccn3)cc2)c2c(N)nccn12 [Example 47, (S)-4-(8-amino-3-(1-but-2-ynoylpyrrolidin-2-yl)imidazo[1,5-a]pyrazin-1-yl)-N-(4-propylpyridin-2-yl)benzamide] | ≥ 1 µM | – | – | ≥ 1 µM | ≥ 1 µM | ≥ 1 µM | < 10 nM | –
8 | CCCc1ccnc(NC(=O)c2ccc(-c3nc([C@H](C)N(C)C(=O)/C=C/COC)n4ccnc(N)c34)cc2)c1 [Example 48, (S,E)-4-(8-amino-3-(1-(4-methoxy-N-methylbut-2-enamido)ethyl)imidazo[1,5-a]pyrazin-1-yl)-N-(4-propylpyridin-2-yl)benzamide] | ≥ 1 µM | – | – | ≥ 1 µM | ≥ 1 µM | ≥ 1 µM | < 10 nM | –
9 | C=CS(=O)(=O)N1CCCC[C@H]1c1nc(-c2ccc(C(=O)Nc3cc(CCC)ccn3)cc2)c2c(N)nccn12 [Example 49, (S)-4-(8-amino-3-(1-(vinylsulfonyl)piperidin-2-yl)imidazo[1,5-a]pyrazin-1-yl)-N-(4-propylpyridin-2-yl)benzamide] | ≥ 1 µM | – | – | ≥ 1 µM | ≥ 1 µM | ≥ 1 µM | < 10 nM | –
10 | CC#CC(=O)N1CCC[C@H]1c1nc(-c2ccc(C(=O)Nc3ccccn3)c(F)c2)c2c(N)nccn12 [Example 50, (S)-4-(8-amino-3-(1-but-2-ynoylpyrrolidin-2-yl)imidazo[1,5-a]pyrazin-1-yl)-2-fluoro-N-(pyridin-2-yl)benzamide] | ≥ 1 µM | 10 to 100 nM | <100 nM | ≥ 1 µM | ≥ 1 µM | ≥ 1 µM | – | –
11 | COC/C=C/C(=O)N1CCC[C@H]1c1nc(-c2ccc(C(=O)Nc3cc(OC)ccn3)cc2)c2c(N)nccn12 [Example 51, (S,E)-4-(8-amino-3-(1-(4-methoxybut-2-enoyl)pyrrolidin-2-yl)imidazo[1,5-a]pyrazin-1-yl)-N-(4-methoxypyridin-2-yl)benzamide] | ≥ 1 µM | 10 to 100 nM | <100 nM | ≥ 1 µM | ≥ 1 µM | ≥ 1 µM | – | –
12 | COC/C=C/C(=O)N1CCC[C@H]1c1nc(-c2ccc(C(=O)Nc3ccccn3)c(F)c2)c2c(N)nccn12 [Example 52] | ≥ 1 µM | 100 to 1000 nM | – | ≥ 1 µM | ≥ 1 µM | ≥ 1 µM | – | <1000 nM
13 | COC/C=C/C(=O)N1CCC[C@H]1c1nc(-c2ccc(C(=O)Nc3cc(F)ccn3)cc2)c2c(N)nccn12 [Example 53, (S,E)-4-(8-amino-3-(1-(4-methoxybut-2-enoyl)pyrrolidin-2-yl)imidazo[1,5-a]pyrazin-1-yl)-N-(4-fluoropyridin-2-yl)benzamide] | ≥ 1 µM | 100 to 1000 nM | – | ≥ 1 µM | ≥ 1 µM | ≥ 1 µM | – | <1000 nM
14 | COC/C=C/C(=O)N1CCCC[C@H]1c1nc(-c2ccc(C(=O)Nc3ccon3)cc2)c2c(N)nccn12 [Example 54, (S,E)-4-(8-amino-3-(1-(4-methoxybut-2-enoyl)piperidin-2-yl)imidazo[1,5-a]pyrazin-1-yl)-N-(isoxazol-3-yl)benzamide] | ≥ 1 µM | 100 to 1000 nM | – | ≥ 1 µM | ≥ 1 µM | ≥ 1 µM | – | <1000 nM
15 | COC/C=C/C(=O)N1CCCC[C@H]1c1nc(-c2ccc(C(=O)Nc3ncccn3)cc2)c2c(N)nccn12 [Example 55, (S,E)-4-(8-amino-3-(1-(4-methoxybut-2-enoyl)piperidin-2-yl)imidazo[1,5-a]pyrazin-1-yl)-N-(pyrimidin-2-yl)benzamide] | ≥ 1 µM | 100 to 1000 nM | – | ≥ 1 µM | ≥ 1 µM | ≥ 1 µM | – | <1000 nM
16 | Cc1cc(C(=O)Nc2ccccn2)ccc1-c1nc([C@@H]2CCCCN2C(=O)c2ccnc(Cl)n2)n2ccnc(N)c12 [Example 56, 4-(8-amino-3-((S)-1-(2-chloropyrimidine-4-carbonyl)piperidin-2-yl)imidazo[1,5-a]pyrazin-1-yl)-3-methyl-N-(pyridin-2-yl)benzamide] | ≥ 1 µM | 10 to 100 nM | <100 nM | ≥ 1 µM | ≥ 1 µM | ≥ 1 µM | – | –
17 | COC/C=C/C(=O)N1CCC[C@H]1c1nc(-c2ccc(C(=O)Nc3cc(C)ccn3)cc2)c2c(N)nccn12 [Example 57, (S,E)-4-(8-amino-3-(1-(4-methoxybut-2-enoyl)pyrrolidin-2-yl)imidazo[1,5-a]pyrazin-1-yl)-N-(4-methylpyridin-2-yl)benzamide] | ≥ 1 µM | 10 to 100 nM | <100 nM | ≥ 1 µM | ≥ 1 µM | ≥ 1 µM | – | –
18 | COC/C=C/C(=O)N1CCC[C@H]1c1nc(-c2ccc(C(=O)Nc3cc(C(C)C)ccn3)cc2)c2c(N)nccn12 [Example 58, (S,E)-4-(8-amino-3-(1-(4-methoxybut-2-enoyl)pyrrolidin-2-yl)imidazo[1,5-a]pyrazin-1-yl)-N-(4-isopropylpyridin-2-yl)benzamide] | ≥ 1 µM | 10 to 100 nM | <100 nM | ≥ 1 µM | ≥ 1 µM | ≥ 1 µM | – | –
19 | Cc1ccnc(NC(=O)c2ccc(-c3nc([C@@H]4CCCN4C(=O)/C=C/CN(C)C)n4ccnc(N)c34)cc2)c1 [Example 59, (S,E)-4-(8-amino-3-(1-(4-(dimethylamino)but-2-enoyl)pyrrolidin-2-yl)imidazo[1,5-a]pyrazin-1-yl)-N-(4-methylpyridin-2-yl)benzamide] | ≥ 1 µM | 10 to 100 nM | <100 nM | ≥ 1 µM | ≥ 1 µM | ≥ 1 µM | – | –

Reference: US9758524B2, “4-imidazopyridazin-1-yl-benzamides as Btk inhibitors” (Merck Sharp & Dohme B.V., priority 2011, dated 2017)
